Source: US20060134068A1, “Treatment of cancer by simultaneous inhibiton of BRAF and restoration or mimicry of p16INK4A activity” (Mount Sinai School of Medicine of New York University, priority 2004, published 2006)

Tests used:
[1] = tested on: mBRAF positive melanoma cells; settings: mice, Collisson et al. 2003; cited from earlier work
CDK4 = CDK4 (Homo sapiens, UniProt P11802); settings: Kubo et al. 1999; cited from earlier work
[2] = tested on: untreated, advanced, melanoma; settings: 17 patients, treatment for a median of about 3 months; cited from earlier work
[3] = tested on: 624Mel, WM35, A375, and Mel1363 cells; experiment: Preliminary chemotherapeutic treatment, daily cell counting and colony formation; type: cell-based; settings: after 6-24 hr treatment, both concentrations

Chain of CDK4 (P11802 whole entry, species assumed): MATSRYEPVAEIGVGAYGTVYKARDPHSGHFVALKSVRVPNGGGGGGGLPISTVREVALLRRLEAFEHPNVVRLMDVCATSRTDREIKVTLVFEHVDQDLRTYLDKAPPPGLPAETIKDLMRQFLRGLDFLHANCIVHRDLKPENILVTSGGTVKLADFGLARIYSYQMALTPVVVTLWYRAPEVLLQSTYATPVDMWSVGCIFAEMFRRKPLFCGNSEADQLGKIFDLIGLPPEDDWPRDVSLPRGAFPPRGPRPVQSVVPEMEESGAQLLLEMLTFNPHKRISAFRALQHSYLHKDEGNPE
Chain of CDK4 (P24385 whole entry partner, species assumed): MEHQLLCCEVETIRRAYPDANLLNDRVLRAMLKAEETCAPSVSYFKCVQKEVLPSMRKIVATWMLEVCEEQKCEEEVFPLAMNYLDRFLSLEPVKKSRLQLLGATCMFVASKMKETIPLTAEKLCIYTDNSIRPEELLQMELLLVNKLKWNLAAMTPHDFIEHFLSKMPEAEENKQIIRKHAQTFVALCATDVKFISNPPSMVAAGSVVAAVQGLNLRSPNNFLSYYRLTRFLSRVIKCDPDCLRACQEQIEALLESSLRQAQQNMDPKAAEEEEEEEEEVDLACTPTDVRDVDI

In the case of `O=C(NOCC1CC1)c1ccc(F)c(F)c1Nc1ccc(I)cc1Cl` [CI 1040], the pulmonary metastases [1] is listed as “suppressed”.
In the case of `CN1CC[C@H](c2c(O)cc(O)c3c(=O)cc(-c4ccccc4Cl)oc23)[C@H](O)C1` [flavopiridol], the “inhibition of CDK4 activity, rank among the compounds” value (CDK4) is given as “most potent inhibitor” and the clinical response [2] is given as “no response”.
For `N.N.[Cl][Pt][Cl]` [cisplatin], the growth inhibition [3] was “Growth inhibition was observed”.
With `CC(=O)O[C@H]1C(=O)[C@@]2(C)[C@H]([C@H](OC(=O)c3ccccc3)[C@]3(O)C[C@H](OC(=O)[C@H](O)[C@@H](NC(=O)c4ccccc4)c4ccccc4)C(C)=C1C3(C)C)[C@]1(OC(C)=O)CO[C@@H]1C[C@@H]2O` [taxol] the growth inhibition [3] was “Growth inhibition was observed”.
